Patent US9708251B2, “Unsaturated fatty alcohol alkoxylates from natural oil metathesis” (Stepan Company, priority 2012, dated 2017)

What was measured:
[1] = Emulsion stability testing of nonionic emulsifiers, aromatic solvent series; type: physicochemical; design: key to 24 h separation, appearance / 1 h separation, appearance / 1 h separation, amount: C = creamy; CO = creamy oil; O = oil; GC = gritty cream; NS = no separation; OC = oily cream; key to Spon. (spontaneity): G = good; F = fair; P = poor
[2] = Emulsion stability testing of nonionic emulsifiers, Hallcomid solvent series; type: physicochemical; design: key to 24 h separation, appearance / 1 h separation, appearance / 1 h separation, amount: C = creamy; CO = creamy oil; O = oil; GC = gritty cream; NS = no separation; OC = oily cream; key to Spon. (spontaneity): G = good; F = fair; P = poor
[3] = as above; type: physicochemical; design: key: C = creamy; CO = creamy oil; O = oil; GC = gritty cream; NS = no separation; OC = oily cream; Tr. = trace; settings: Bifenthrin 240 g/L in Hallcomid M-8-10, 34 ppm water
Description: Nonionic samples contain a low amount of water (<1%) and are prepared as emulsifiable concentrates with three pesticides using two different solvent systems. In the aromatic solvent series, the nonionic sample replaces Toximul® 8240 (castor oil ethoxylate, 36 POE, Stepan), and in the Hallcomid™ (N,N-dimethylcaprylamide/N,N-dimethylcapramide, Stepan) solvent series, the nonionic sample replaces Ninex® MT-630F.
Hallcomid Solvent Series.
Sample preparation: The surfactants are combined and stirred until homogeneous, with the nonionic sample melted if needed prior to combination. Controls 1-3 are made by using Ninex MT-630F in the amounts indicated instead of the nonionic sample.
Emulsion Stability Testing
A Mohr pipette is used to feed pesticide/surfactant concentrates to each cylinder.

[4] = Surfactant phase behavior study (cross-polarized microscopy); type: physicochemical; settings: room temperature, in deionized water
How it was run: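 Saturated analogs serve as comparators. Water dilutions of the product, stepped at 2-4% near transitions, equilibrated between slide and cover glass and assigned phase by cross-polarized microscopy texture at 100-400×, 20-22° C. Boundaries lie within ±5% actives; some samples checked by viscosity at 25° C.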

[5] = Fabric cleaning: compaction (surfactant blends); type: physicochemical
Description: The sample is formulated into surfactant blends having high actives content. Two experimental derivatives, A12-13 and A12-21, are evaluated.
In a first experiment, a three-component surfactant blend is prepared. This blend comprises the experimental sample (30 wt. %), a linear alkylbenzene sulfonate (15 wt. %), and an alkyl ether sulfate (15 wt. %). The appearance and viscosity of the blend are compared with those of similar three-component blends in which a standard alcohol ethoxylate replaces the experimental sample.
In a second experiment, a two-component surfactant blend is prepared in which the experimental sample and a linear alkylbenzene sulfonate are combined at a 1:1 actives ratio, beginning with a high actives blend having a cloudy appearance. Water is gradually added and mixed with the surfactant blend at room temperature. […]

[6] = Performance as a latex paint additive (formulation, KU, rating); settings: initial KU of 90; additive 1% active based on latex solids
Description: Titanium dioxide slurry (Dupont Ti-Pure® R746) is charged to a container, followed by deionized water and propylene glycol, and the contents are mixed (500 rpm). […] The pH is adjusted to 9.0 using ammonium hydroxide solution. The batch is mixed for 30 min. and then allowed to stand for at least 2 h. […] Viscosity is adjusted to an initial KU of 90 with more thickener.

[7] = Emulsion stability testing of nonionic emulsifiers, Hallcomid solvent series; type: physicochemical; design: key: C = creamy; CO = creamy oil; O = oil; GC = gritty cream; NS = no separation; OC = oily cream; settings: Bifenthrin 240 g/L in Hallcomid M-8-10, 34 ppm water
[8] = 2,4-D ester 480 g/L in Exxsol D-110, 34 ppm water
[9] = 2,4-D ester 480 g/L in Exxsol D-110, 1000 ppm water
[10] = Bifenthrin 240 g/L in Aromatic 100, 34 ppm water
[11] = Bifenthrin 240 g/L in Aromatic 100, 1000 ppm water
[12] = Tebuconazole 360 g/L in N-methyl-2-pyrrolidone, 34 ppm water
[13] = Tebuconazole 360 g/L in N-methyl-2-pyrrolidone, 1000 ppm water
[14] = 2,4-D diester 480 g/L in Hallcomid M-8-10, 34 ppm water
[15] = 2,4-D diester 480 g/L in Hallcomid M-8-10, 1000 ppm water
[16] = Bifenthrin 240 g/L in Hallcomid M-8-10, 34 ppm water
[17] = Bifenthrin 240 g/L in Hallcomid M-8-10, 1000 ppm water
[18] = Tebuconazole 360 g/L in Hallcomid M-8-10, 34 ppm water
[19] = Tebuconazole 360 g/L in Hallcomid M-8-10, 1000 ppm water
[20] = three-component blend: sample 30 wt. %, linear alkylbenzene sulfonate 15 wt. %, alkyl ether sulfate 15 wt. %

CCC=CCCCCCCCCOCCOCCOCCOCCOCCOCCOCCO (mixture of isomers) [A12-13]
1 h separation, amount [1, 8]: 3.5 mL
1 h separation, appearance [1, 8]: C
24 h separation, amount [1, 8]: 5 mL
24 h separation, appearance [1, 8]: C
Spon. (spontaneity) [1, 8]: F
1 h separation, amount [1, 9]: 5.2 mL
1 h separation, appearance [1, 9]: CO
24 h separation, amount [1, 9]: 5 mL
24 h separation, appearance [1, 9]: CO
Spon. (spontaneity) [1, 9]: F
1 h separation, amount [1, 10]: 1 mL
1 h separation, appearance [1, 10]: C
24 h separation, amount [1, 10]: 4.9 mL
24 h separation, appearance [1, 10]: C
Spon. (spontaneity) [1, 10]: F
1 h separation, amount [1, 11]: Tr.
1 h separation, appearance [1, 11]: C
24 h separation, amount [1, 11]: 0.5 CO, 1 C
Spon. (spontaneity) [1, 11]: G
1 h separation, amount [1, 12]: 1.8 mL
1 h separation, appearance [1, 12]: C
24 h separation, amount [1, 12]: 3 GC, 4 CO
Spon. (spontaneity) [1, 12]: P
1 h separation, amount [1, 13]: 2.4 mL
1 h separation, appearance [1, 13]: C
24 h separation, amount [1, 13]: 3.5 mL
24 h separation, appearance [1, 13]: GC
Spon. (spontaneity) [1, 13]: P
1 h separation, amount [2, 14]: 4.4 mL
1 h separation, appearance [2, 14]: C
24 h separation, amount [2, 14]: 9.6 mL
24 h separation, appearance [2, 14]: C
Spon. (spontaneity) [2, 14]: P
1 h separation, amount [2, 15]: 5.2 mL
1 h separation, appearance [2, 15]: C
24 h separation, amount [2, 15]: 9 mL
24 h separation, appearance [2, 15]: C
Spon. (spontaneity) [2, 15]: F
1 h separation, amount [2, 16]: NS
24 h separation, appearance [2, 16]: C
Spon. (spontaneity) [2, 16]: G
1 h separation, amount [2, 17]: 5.1 mL
1 h separation, appearance [2, 17]: CO
24 h separation, amount [2, 17]: 3 O, 2 CO
Spon. (spontaneity) [2, 17]: F
1 h separation, amount [2, 18]: 1.3 mL
1 h separation, appearance [2, 18]: C
24 h separation, amount [2, 18]: 4.1 mL
24 h separation, appearance [2, 18]: C
Spon. (spontaneity) [2, 18]: F
1 h separation, amount [2, 19]: 1.8 mL
1 h separation, appearance [2, 19]: C
24 h separation, amount [2, 19]: 4.3 mL
24 h separation, appearance [2, 19]: C
Spon. (spontaneity) [2, 19]: G
24 h separation, amount [3]: Tr.
Hexagonal phase region [4]: 35-57 % Actives Level
Appearance, 25° C. [5, 20]: cloudy, flowable gel
Viscosity [5, 20]: 5400 cPs
% Actives at which blend is clear and homogeneous at 25° C. ([5]; two-component blend with linear alkylbenzene sulfonate, 1:1 actives ratio): 41 % Actives

CCC=CCCCCCCCCOCCOCCOCCOCCOCCOCCOCCOCCOCCOCCOCCOCCOCCOCCOCCO (mixture of isomers) [A12-16]
1 h separation, amount [1, 8]: 3.9 mL
1 h separation, appearance [1, 8]: C
24 h separation, amount [1, 8]: 5.3 mL
24 h separation, appearance [1, 8]: C
Spon. (spontaneity) [1, 8]: P
1 h separation, amount [1, 9]: 2.9 mL
1 h separation, appearance [1, 9]: C
24 h separation, amount [1, 9]: 4 mL
24 h separation, appearance [1, 9]: C
Spon. (spontaneity) [1, 9]: P
1 h separation, amount [1, 10]: 5.9 mL
1 h separation, appearance [1, 10]: C
24 h separation, amount [1, 10]: 6 mL
24 h separation, appearance [1, 10]: C
Spon. (spontaneity) [1, 10]: F
1 h separation, amount [1, 11]: 5.5 mL
1 h separation, appearance [1, 11]: C
24 h separation, amount [1, 11]: 5 mL
24 h separation, appearance [1, 11]: C
Spon. (spontaneity) [1, 11]: P
1 h separation, amount [1, 12]: 1.8 mL
1 h separation, appearance [1, 12]: CO
24 h separation, amount [1, 12]: 3 mL
24 h separation, appearance [1, 12]: GC
Spon. (spontaneity) [1, 12]: F
1 h separation, amount [1, 13]: 1.9 mL
1 h separation, appearance [1, 13]: CO
24 h separation, amount [1, 13]: 3 mL
24 h separation, appearance [1, 13]: GC
Spon. (spontaneity) [1, 13]: F
1 h separation, amount [2, 14]: 4.5 mL
1 h separation, appearance [2, 14]: C
24 h separation, amount [2, 14]: 8.5 mL
24 h separation, appearance [2, 14]: C
Spon. (spontaneity) [2, 14]: P
1 h separation, amount [2, 15]: 4 mL
1 h separation, appearance [2, 15]: C
24 h separation, amount [2, 15]: 7 mL
24 h separation, appearance [2, 15]: C
Spon. (spontaneity) [2, 15]: P
1 h separation, amount [2, 16]: NS
Spon. (spontaneity) [2, 16]: G
1 h separation, amount [2, 17]: 6.2 mL
1 h separation, appearance [2, 17]: CO
24 h separation, amount [2, 17]: 2 O, 3.6 CO
Spon. (spontaneity) [2, 17]: F
1 h separation, amount [2, 18]: 1.5 mL
1 h separation, appearance [2, 18]: C
24 h separation, amount [2, 18]: 3 mL
24 h separation, appearance [2, 18]: C
Spon. (spontaneity) [2, 18]: F
1 h separation, amount [2, 19]: 1.5 mL
1 h separation, appearance [2, 19]: C
24 h separation, amount [2, 19]: 3 mL
24 h separation, appearance [2, 19]: C
Spon. (spontaneity) [2, 19]: F
final KU of paint after 24 h [6]: 93-100 KU
Cubic phase region [4]: 30-57 % Actives Level
Hexagonal phase region [4]: 60-70 % Actives Level
Paste phase region [4]: 93-100 % Actives Level
24 h separation, amount [7]: NS
